The results in this text go back to patent US9440989B2, “Antifibrinolytic compounds” (PROYECTO DE BIOMEDICINA CIMA, S.L., priority 2012, dated 2016).

A value given as a limit tells only on which side of the number the result lay.

The subject of one assay is human blood (whole blood clot lysis, tPA). The assay is described as follows: Thromboelastometry (ROTEM, modified in-tem with tPA): whole blood clot formation and lysis, human blood. As to conditions: Homo sapiens, read-out: EC50LT (effective concentration to delay lysis time by 50%).
Method: A modification of in-tem test as described below was used for the examination of antifibrinolytic effects of tested compounds and its interaction with platelets in citrated blood.
In a pre-warmed cuvette and holder 1 μL of Tissue plasminogen activator (tPA) (150,000 U/mL, Actylise), 20 μL of start-tem reagent (CaCl2), 20 μL of in-tem reagent (activators of coagulation system), 3 μL of DMSO (control) or tested compounds (CMs) in DMSO and 300 μL of citrated blood pre-warmed were pipetted. The cup holder containing the sample mixture was placed immediately on the appropriate channel. The measurement was recorded for 60 min to allow clot formation and lysis.
With `CC(C)CCOc1ccc(S(=O)(=O)C2(C(=O)NO)CCC3(CCNCC3)C2)cc1` (stereo not shown) [Example 1-05], the EC50 lay in the range of 10 to 25 µM.
Still for that read-out and setting: as for `COC(=O)c1ccc(Oc2ccc(S(=O)(=O)C3(C(=O)NO)CCC4(CCNCC4)C3)cc2)cc1` (stereo not shown) [Example 1-06], the figure is over 25 µM.
On the same count and under the same terms, as for `O=C(NO)C1(S(=O)(=O)c2ccc(OCCN3CCCCC3)cc2)CCC2(CCNCC2)C1` (stereo not shown) [Example 1-11, N-hydroxy-3-(4-[2-(piperidin-1-yl)ethoxy]phenylsulfonyl)-8-azaspiro[4.5]decane-3-carboxamide], the figure is under 1 µM; as for `CC(=O)Nc1ccc(Oc2ccc(S(=O)(=O)C3(C(=O)NO)CCC4(CCNCC4)C3)cc2)cc1` (stereo not shown) [Example 1-13], under 1 µM; as for `COc1ccc(Sc2ccc(S(=O)(=O)C3(C(=O)NO)CCC4(CCNCC4)C3)cc2)cc1` (stereo not shown) [Example 1-15], over 25 µM.
Consider `COC1CCN(c2ccc(S(=O)(=O)C3(C(=O)NO)CCC4(CCNCC4)C3)cc2)CC1` (stereo not shown) [Example 1-16, N-hydroxy-3-[4-(4-methoxypiperidin-1-yl)phenylsulfonyl]-8-azaspiro[4.5]decane-3-carboxamide], for which the EC50 was 1 to 10 µM.
For the molecule `COc1ccc(S(=O)(=O)c2ccc(S(=O)(=O)C3(C(=O)NO)CCC4(CCNCC4)C3)cc2)cc1` (stereo not shown) [Example 1-17], the EC50 lay within 1 to 10 µM.
Same read-out and setting: as for `O=C(NO)C1(S(=O)(=O)c2ccc(OC3CCCCC3)cc2)CCC2(CCNCC2)C1` (stereo not shown) [Example 1-18], the figure is 1 to 10 µM; as for `O=C(NO)C1(S(=O)(=O)c2ccc(Oc3ccc(C(F)(F)F)cc3)cc2)CCC2(CCNCC2)C1` (stereo not shown) [Example 1-21], under 1 µM; as for `COc1ccc(Oc2ccc(S(=O)(=O)C3(C(=O)NO)CCC4(CCN(CC(C)=O)CC4)C3)cc2)cc1` (stereo not shown) [Example 1-28], 1 to 10 µM.
Still for that read-out and setting: to `COc1ccc(Oc2ccc(S(=O)(=O)C3(C(=O)NO)CCC4(CCN(CC(=O)O)CC4)C3)cc2)cc1` (stereo not shown) [Example 1-29] belongs 1 to 10 µM.
On the same count and under the same terms, as for `CCCN1CCC2(CC1)CCC(C(=O)NO)(S(=O)(=O)c1ccc(Oc3ccc(OC)cc3)cc1)C2` (stereo not shown) [Example 1-31], the figure is under 1 µM; as for `COc1ccc(Oc2ccc(S(=O)(=O)C3(C(=O)NO)CCC4(CCN(C5CC5)CC4)C3)cc2)cc1` (stereo not shown) [Example 1-32], 1 to 10 µM; as for `CNC(=O)N1CCC2(CC1)CCC(C(=O)NO)(S(=O)(=O)c1ccc(Oc3ccc(OC)cc3)cc1)C2` (stereo not shown) [Example 1-33], over 25 µM.
Regarding `COc1ccc(Oc2ccc(S(=O)(=O)C3(C(=O)NO)CCC4(CCN(c5ccccc5)CC4)C3)cc2)cc1` (stereo not shown) [Example 1-34], the EC50 was over 25 µM.
With `COc1ccc(Oc2ccc(S(=O)(=O)C3(C(=O)NO)CCC4(CCN(c5ccccn5)CC4)C3)cc2)cc1` (stereo not shown) [Example 1-35], the EC50 was in the range of 1 to 10 µM.
`COc1ccc(Oc2ccc(S(=O)(=O)C3(C(=O)NO)CCC4(CCN(Cc5ccccc5)CC4)C3)cc2)cc1` (stereo not shown) [Example 1-36]: the EC50 is 1 to 10 µM.
Still for that read-out and setting: as for `COc1ccc(Oc2ccc(S(=O)(=O)C3(C(=O)NO)CCC4(CCN(Cc5ccncc5)CC4)C3)cc2)cc1` (stereo not shown) [Example 1-37], the figure is over 25 µM.
In the case of `COc1ccc(-c2ccc(S(=O)(=O)C3(C(=O)NO)CCC4(CCNCC4)C3)cc2)cc1` (stereo not shown) [Example 1-41, N-hydroxy-3-(4-(4-methoxyphenyl)Phenylsulfonyl)-8-azaspiro[4.5]decane-3-carboxamide], the EC50 is over 25 µM.
On the same count and under the same terms, to `COc1ccc(Oc2ccc(S(=O)(=O)C3(C(=O)NO)CC34CCNCC4)cc2)cc1` (stereo not shown) [Example 1-43] belongs under 1 µM.
For the molecule `COc1ccc(Oc2ccc(S(=O)(=O)C3(C(=O)NO)CCC4(CCNCC4)C3)cc2Cl)cc1` (stereo not shown) [Example 1-56, N-hydroxy-3-(3-chloro-4-(4-methoxyphenoxyl)Phenylsulfonyl)-8-azaspiro[4.5]decane-3-carboxamide], the EC50 was under 1 µM.

The same assay, now with this note: read-out: EC50LT (effective concentration to delay lysis time by 50%); human blood, tPA, assayed concentrations 1000-0.2 μM.
`COc1ccc(Oc2ccc(S(=O)(=O)C3(C(=O)NO)CCC4(CCN(Cc5cnc[nH]5)CC4)C3)cc2)cc1` (stereo not shown) [Example 1-39]: the EC50 is over 25 µM.
